Measurements published in ChEMBL document CHEMBL4308864, “Targeting tyrosine kinase: Development of acridone - pyrrole - oxindole hybrids against human breast cancer” (2019).

What was measured:
Type in all cases: functional
SK-MEL-5 = test: Growth inhibition of human SK-MEL-5 cells assessed as cell growth at 10^-5 M incubated for 48 hrs by sulforhodamine B assay relative to control; conditions: SK-MEL-5, 48 h, read-out: Activity
IGROV-1 = test: Growth inhibition of human IGROV1 cells assessed as cell growth at 10^-5 M incubated for 48 hrs by sulforhodamine B assay relative to control; conditions: IGROV-1, 48 h, read-out: Activity
EKVX = test: Growth inhibition of human EKVX cells assessed as cell growth at 10^-5 M incubated for 48 hrs by sulforhodamine B assay relative to control; conditions: read-out: Activity
NCI-H226 = test: Growth inhibition of human NCI-H226 cells assessed as cell growth at 10^-5 M incubated for 48 hrs by sulforhodamine B assay relative to control; conditions: NCI-H226, 48 h, read-out: Activity
SF-539 = test: Growth inhibition of human SF539 cells assessed as cell growth at 10^-5 M incubated for 48 hrs by sulforhodamine B assay relative to control; conditions: SF-539, 48 h, read-out: Activity
Malme-3M = test: Growth inhibition of human MALME-3M cells assessed as cell growth at 10^-5 M incubated for 48 hrs by sulforhodamine B assay relative to control; conditions: read-out: Activity
UACC-62 = test: Growth inhibition of human UACC62 cells assessed as cell growth at 10^-5 M incubated for 48 hrs by sulforhodamine B assay relative to control; conditions: UACC-62, 48 h, read-out: Activity
NCI-H322M = test: Growth inhibition of human NCI-H322M cells assessed as cell growth at 10^-5 M incubated for 48 hrs by sulforhodamine B assay relative to control; conditions: read-out: Activity
SK-MEL-2 = test: Growth inhibition of human SK-MEL-2 cells assessed as cell growth at 10^-5 M incubated for 48 hrs by sulforhodamine B assay relative to control; conditions: SK-MEL-2, 48 h, read-out: Activity
U-251 = test: Growth inhibition of human U251 cells assessed as cell growth at 10^-5 M incubated for 48 hrs by sulforhodamine B assay relative to control; conditions: U-251, 48 h, read-out: Activity
OVCAR-8 = test: Growth inhibition of human OVCAR8 cells assessed as cell growth at 10^-5 M incubated for 48 hrs by sulforhodamine B assay relative to control; conditions: OVCAR-8, 48 h, read-out: Activity
PC-3 = test: Growth inhibition of human PC3 cells assessed as cell growth at 10^-5 M incubated for 48 hrs by sulforhodamine B assay relative to control; conditions: PC-3, 48 h, read-out: Activity
SF-268 = test: Growth inhibition of human SF268 cells assessed as cell growth at 10^-5 M incubated for 48 hrs by sulforhodamine B assay relative to control; conditions: SF-268, 48 h, read-out: Activity
HL-60(TB) = test: Growth inhibition of human HL-60(TB) cells assessed as cell growth at 10^-5 M incubated for 48 hrs by sulforhodamine B assay relative to control; conditions: HL-60, 48 h, read-out: Activity
RXF 393 = test: Growth inhibition of human RXF393 cells assessed as cell growth at 10^-5 M incubated for 48 hrs by sulforhodamine B assay relative to control; conditions: RXF 393, 48 h, read-out: Activity
SR = test: Growth inhibition of human SR cells assessed as cell growth at 10^-5 M incubated for 48 hrs by sulforhodamine B assay relative to control; conditions: read-out: Activity
Hs-578T = test: Growth inhibition of human Hs578T cells assessed as cell growth at 10^-5 M incubated for 48 hrs by sulforhodamine B assay relative to control; conditions: read-out: Activity
NCI-H522 = test: Growth inhibition of human NCI-H522 cells assessed as cell growth at 10^-5 M incubated for 48 hrs by sulforhodamine B assay relative to control; conditions: NCI-H522, 48 h, read-out: Activity
CCRF-CEM = test: Growth inhibition of human CCRF-CEM cells assessed as cell growth at 10^-5 M incubated for 48 hrs by sulforhodamine B assay relative to control; conditions: read-out: Activity
DU-145 = test: Growth inhibition of human DU145 cells assessed as cell growth at 10^-5 M incubated for 48 hrs by sulforhodamine B assay relative to control; conditions: DU-145, 48 h, read-out: Activity
786-0 = test: Growth inhibition of human 786-0 cells assessed as cell growth at 10^-5 M incubated for 48 hrs by sulforhodamine B assay relative to control; conditions: 786-0, 48 h, read-out: Activity
HOP-62 = test: Growth inhibition of human HOP62 cells assessed as cell growth at 10^-5 M incubated for 48 hrs by sulforhodamine B assay relative to control; conditions: HOP-62, 48 h, read-out: Activity
MOLT-4 = test: Growth inhibition of human MOLT4 cells assessed as cell growth at 10^-5 M incubated for 48 hrs by sulforhodamine B assay relative to control; conditions: MOLT-4, 48 h, read-out: Activity
T47D = test: Growth inhibition of human T47D cells at 10^-5 M incubated for 48 hrs by sulforhodamine B assay relative to control; conditions: read-out: GI
RPMI-8226 = test: Growth inhibition of human RPMI8226 cells assessed as cell growth at 10^-5 M incubated for 48 hrs by sulforhodamine B assay relative to control; conditions: RPMI-8226, 48 h, read-out: Activity
OVCAR-3 = test: Growth inhibition of human OVCAR3 cells assessed as cell growth at 10^-5 M incubated for 48 hrs by sulforhodamine B assay relative to control; conditions: OVCAR-3, 48 h, read-out: Activity
MDA-MB-435 = test: Growth inhibition of human MDA-MB-435 cells assessed as cell growth at 10^-5 M incubated for 48 hrs by sulforhodamine B assay relative to control; conditions: MDA-MB-435, 48 h, read-out: Activity
A498 = test: Growth inhibition of human A498 cells assessed as cell growth at 10^-5 M incubated for 48 hrs by sulforhodamine B assay relative to control; conditions: A498, 48 h, read-out: Activity

Row | SMILES | growth at 10 µM (SK-MEL-5) [%] | growth at 10 µM (IGROV-1) [%] | growth at 10 µM (EKVX) [%] | growth at 10 µM (NCI-H226) [%] | growth at 10 µM (SF-539) [%] | growth at 10 µM (Malme-3M) [%] | growth at 10 µM (UACC-62) [%] | growth at 10 µM (NCI-H322M) [%] | growth at 10 µM (SK-MEL-2) [%] | growth at 10 µM (U-251) [%] | growth at 10 µM (OVCAR-8) [%] | growth at 10 µM (PC-3) [%] | growth at 10 µM (SF-268) [%] | growth at 10 µM (HL-60(TB)) [%] | growth at 10 µM (RXF 393) [%] | growth at 10 µM (SR) [%] | growth at 10 µM (Hs-578T) [%] | growth at 10 µM (NCI-H522) [%] | growth at 10 µM (CCRF-CEM) [%] | growth at 10 µM (DU-145) [%] | other results
1 | O=C1Nc2ccccc2/C1=C/c1cccn1CCCCCn1c2ccccc2c(=O)c2ccccc21 | 32.2 | 73 | 71.8 | 70 | 94.2 | 84.5 | 48.2 | 98.8 | 84 | 93.4 | 45.6 | 42 | 83.3 | 47.6 | 89.2 | 76.1 | 90.5 | 66.3 | 44.9 | 97.9 | growth at 10 µM (786-0): 105%; growth at 10 µM (HOP-62): 58.3%; growth at 10 µM (MOLT-4): 46%; inhibition of growth at 10 µM (T47D): 98%; growth at 10 µM (RPMI-8226): 22.1%; growth at 10 µM (OVCAR-3): 70.9%; growth at 10 µM (MDA-MB-435): 93.6%; growth at 10 µM (A498): 108%
2 | O=C1Nc2ccccc2/C1=C/c1cccn1CCCCn1c2ccccc2c(=O)c2ccccc21 | 38.6 | 77.3 | 86.1 | 75.2 | 93 | 91.9 | 51.8 | 101 | 84 | 95.1 | 58.8 | 55.1 | 83.1 | 60.2 | 88.1 | 80.1 | 86.3 | 68.4 | 52.8 | 94.2 | growth at 10 µM (786-0): 97%; growth at 10 µM (HOP-62): 77.4%; growth at 10 µM (MOLT-4): 47.7%; inhibition of growth at 10 µM (T47D): 95%; growth at 10 µM (RPMI-8226): 33.5%; growth at 10 µM (OVCAR-3): 86.7%; growth at 10 µM (MDA-MB-435): 92.7%; growth at 10 µM (A498): 109%
3 | O=C1/C(=C\c2cccn2CCCCn2c3ccccc3c(=O)c3ccccc32)c2ccccc2N1c1c(Cl)cccc1Cl | 98.7 | 110 | 88.8 | 89.5 | 98.9 | 106 | 82.1 | 103 | 105 | 96 | 98.3 | 78.9 | 94 | 106 | 97.5 | 87.7 | 103 | 90 | 103 | 111 | growth at 10 µM (786-0): 103%; growth at 10 µM (HOP-62): 104%; growth at 10 µM (MOLT-4): 93.8%; inhibition of growth at 10 µM (T47D): 33%; growth at 10 µM (RPMI-8226): 97.4%; growth at 10 µM (OVCAR-3): 118%; growth at 10 µM (MDA-MB-435): 103%; growth at 10 µM (A498): 116%
4 | O=C1/C(=C\c2cccn2CCCCCCn2c3ccccc3c(=O)c3ccccc32)c2ccccc2N1c1c(Cl)cccc1Cl | 94.7 | 90.6 | 89.5 | 81.9 | 104 | 102 | 85.5 | 98.6 | 98.8 | 97.6 | 98.5 | 73.9 | 94.7 | 103 | 97 | 91.5 | 103 | 91 | 108 | 113 | growth at 10 µM (786-0): 103%; growth at 10 µM (HOP-62): 102%; growth at 10 µM (MOLT-4): 91.2%; inhibition of growth at 10 µM (T47D): 57%; growth at 10 µM (RPMI-8226): 93.4%; growth at 10 µM (OVCAR-3): 102%; growth at 10 µM (MDA-MB-435): 105%; growth at 10 µM (A498): 110%
5 | O=C1NC(=O)C(=Cc2cccn2CCCCCCn2c3ccccc3c(=O)c3ccccc32)C(=O)N1 | 85.7 | 91.5 | 100 | 89.5 | 107 | 112 | 82.1 | 94.1 | 107 | 90.5 | 93 | 87.7 | 97 | 91.3 | 106 | 72.2 | 106 | 92.7 | 93.8 | 103 | growth at 10 µM (786-0): 97.9%; growth at 10 µM (HOP-62): 93.1%; growth at 10 µM (MOLT-4): 79.6%; inhibition of growth at 10 µM (T47D): 25%; growth at 10 µM (RPMI-8226): 73.9%; growth at 10 µM (OVCAR-3): 103%; growth at 10 µM (MDA-MB-435): 102%; growth at 10 µM (A498): 93.1%
6 | O=C1/C(=C\c2cccn2CCCCCn2c3ccccc3c(=O)c3ccccc32)c2ccccc2N1c1c(Cl)cccc1Cl | 96.2 | 98.7 | 94.6 | 91.6 | 97 | 108 | 82.6 | 110 | 101 | 93 | 97.7 | 73.2 | 95.7 | 96.8 | 100 | 92.3 | 101 | 84.9 | 100 | 111 | growth at 10 µM (786-0): 104%; growth at 10 µM (HOP-62): 102%; growth at 10 µM (MOLT-4): 87.6%; inhibition of growth at 10 µM (T47D): 72%; growth at 10 µM (RPMI-8226): 92.3%; growth at 10 µM (OVCAR-3): 99.1%; growth at 10 µM (MDA-MB-435): 108%; growth at 10 µM (A498): 106%
7 | O=C1Nc2ccccc2/C1=C/c1cccn1CCCCCCn1c2ccccc2c(=O)c2ccccc21 | 34.7 | 88 | 65.3 | 72.7 | 100 | 90.7 | 50.3 | 97.9 | 86.2 | 92.4 | 47.5 | 40.1 | 87 | 54.5 | 99.2 | 80.8 | 96.3 | 66 | 49.8 | 94 | growth at 10 µM (786-0): 103%; growth at 10 µM (HOP-62): 63.2%; growth at 10 µM (MOLT-4): 50.9%; inhibition of growth at 10 µM (T47D): 100%; growth at 10 µM (RPMI-8226): 25.3%; growth at 10 µM (OVCAR-3): 64.9%; growth at 10 µM (MDA-MB-435): 96.7%; growth at 10 µM (A498): 103%
